Measurements: article doi:10.1101/2023.03.24.534094v2 (biorxiv, 2023)
Read-outs that look alike come from different tables or passages of the source. Each block holds one compound with its values, some of them ahead of it.

Key:
Assay in all cases: biochemical
FECH = target: T1, FECH (Homo sapiens, UniProt P22830)
T1 sequence (P22830 1-423): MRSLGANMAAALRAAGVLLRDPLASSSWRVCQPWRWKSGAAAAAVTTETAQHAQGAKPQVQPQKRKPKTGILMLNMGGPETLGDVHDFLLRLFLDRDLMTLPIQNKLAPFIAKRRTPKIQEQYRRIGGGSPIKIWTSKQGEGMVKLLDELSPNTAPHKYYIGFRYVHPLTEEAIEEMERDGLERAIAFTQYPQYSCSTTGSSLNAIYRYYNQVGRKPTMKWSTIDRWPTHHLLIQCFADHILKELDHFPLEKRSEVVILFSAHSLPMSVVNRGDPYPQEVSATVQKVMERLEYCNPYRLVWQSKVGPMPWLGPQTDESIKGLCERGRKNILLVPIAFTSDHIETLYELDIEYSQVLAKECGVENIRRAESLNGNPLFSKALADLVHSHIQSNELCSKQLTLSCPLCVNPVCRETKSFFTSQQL

CDKL1 = CDKL1 (Homo sapiens, UniProt Q00532)
GAK = target: T2, GAK (Homo sapiens, UniProt O14976)
T2 sequence (O14976 1-1311): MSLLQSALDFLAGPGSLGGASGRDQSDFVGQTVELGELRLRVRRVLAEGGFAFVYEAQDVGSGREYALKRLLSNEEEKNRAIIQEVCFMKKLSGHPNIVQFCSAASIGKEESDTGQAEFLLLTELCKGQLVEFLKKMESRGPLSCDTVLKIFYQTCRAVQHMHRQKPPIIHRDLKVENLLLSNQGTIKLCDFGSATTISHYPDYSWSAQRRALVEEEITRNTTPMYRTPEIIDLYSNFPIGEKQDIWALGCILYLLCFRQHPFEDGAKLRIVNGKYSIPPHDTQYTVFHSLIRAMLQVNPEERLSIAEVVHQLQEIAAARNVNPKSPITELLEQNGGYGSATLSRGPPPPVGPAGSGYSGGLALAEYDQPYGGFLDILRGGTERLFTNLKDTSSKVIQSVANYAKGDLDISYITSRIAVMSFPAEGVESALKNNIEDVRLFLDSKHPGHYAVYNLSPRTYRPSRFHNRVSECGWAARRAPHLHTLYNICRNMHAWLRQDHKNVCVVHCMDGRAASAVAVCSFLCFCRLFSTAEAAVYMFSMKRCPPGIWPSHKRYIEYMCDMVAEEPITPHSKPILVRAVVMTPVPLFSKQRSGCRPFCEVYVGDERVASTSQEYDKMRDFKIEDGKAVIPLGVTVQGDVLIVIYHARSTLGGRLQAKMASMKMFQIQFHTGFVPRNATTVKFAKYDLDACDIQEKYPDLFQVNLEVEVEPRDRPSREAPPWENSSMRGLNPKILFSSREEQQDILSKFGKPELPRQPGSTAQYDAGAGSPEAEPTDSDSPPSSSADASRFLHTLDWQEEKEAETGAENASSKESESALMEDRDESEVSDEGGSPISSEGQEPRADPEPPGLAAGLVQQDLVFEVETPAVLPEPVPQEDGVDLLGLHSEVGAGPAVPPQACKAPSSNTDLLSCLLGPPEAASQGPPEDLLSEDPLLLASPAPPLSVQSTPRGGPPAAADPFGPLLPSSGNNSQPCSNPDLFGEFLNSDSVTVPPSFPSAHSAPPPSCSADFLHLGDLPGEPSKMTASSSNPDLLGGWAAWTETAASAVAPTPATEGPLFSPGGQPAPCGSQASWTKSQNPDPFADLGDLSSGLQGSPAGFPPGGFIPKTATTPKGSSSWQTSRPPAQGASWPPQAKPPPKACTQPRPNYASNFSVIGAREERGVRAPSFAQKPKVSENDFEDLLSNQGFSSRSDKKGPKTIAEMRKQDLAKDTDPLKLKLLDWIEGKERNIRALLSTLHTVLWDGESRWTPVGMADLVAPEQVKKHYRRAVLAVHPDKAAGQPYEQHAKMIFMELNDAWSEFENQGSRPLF

CaMK2b = CaMK2b (Homo sapiens, UniProt Q13554)
ABL1 = ABL1 (Homo sapiens, UniProt P00519)
PHKG2 = target: T3, PHKG2 (Homo sapiens, UniProt P15735)
T3 sequence (P15735 1-406): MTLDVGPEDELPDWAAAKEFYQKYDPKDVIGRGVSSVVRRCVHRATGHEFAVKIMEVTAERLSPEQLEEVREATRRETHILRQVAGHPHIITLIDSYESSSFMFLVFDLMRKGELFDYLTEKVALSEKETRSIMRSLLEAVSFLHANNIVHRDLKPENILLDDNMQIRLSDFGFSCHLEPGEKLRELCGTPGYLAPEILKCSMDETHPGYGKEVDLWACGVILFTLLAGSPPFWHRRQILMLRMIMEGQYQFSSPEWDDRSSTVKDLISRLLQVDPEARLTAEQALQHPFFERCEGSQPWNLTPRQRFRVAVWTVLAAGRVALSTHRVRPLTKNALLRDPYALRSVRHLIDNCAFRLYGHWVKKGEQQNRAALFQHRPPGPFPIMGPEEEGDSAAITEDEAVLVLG

MAP2K4 = target: T4, MAP2K4 (Homo sapiens, UniProt P45985)
T4 sequence (P45985 1-399): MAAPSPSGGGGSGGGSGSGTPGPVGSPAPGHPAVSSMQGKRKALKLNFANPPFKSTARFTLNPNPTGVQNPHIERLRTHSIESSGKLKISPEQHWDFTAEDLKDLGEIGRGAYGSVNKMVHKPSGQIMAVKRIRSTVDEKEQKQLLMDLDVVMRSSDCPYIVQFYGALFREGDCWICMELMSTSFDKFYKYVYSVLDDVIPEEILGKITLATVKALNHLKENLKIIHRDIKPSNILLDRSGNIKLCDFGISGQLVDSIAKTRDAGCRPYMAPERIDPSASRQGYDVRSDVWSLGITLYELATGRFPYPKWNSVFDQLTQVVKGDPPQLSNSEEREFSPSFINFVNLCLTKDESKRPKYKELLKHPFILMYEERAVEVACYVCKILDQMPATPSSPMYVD

Sequence of CDKL1 (Q00532 whole entry): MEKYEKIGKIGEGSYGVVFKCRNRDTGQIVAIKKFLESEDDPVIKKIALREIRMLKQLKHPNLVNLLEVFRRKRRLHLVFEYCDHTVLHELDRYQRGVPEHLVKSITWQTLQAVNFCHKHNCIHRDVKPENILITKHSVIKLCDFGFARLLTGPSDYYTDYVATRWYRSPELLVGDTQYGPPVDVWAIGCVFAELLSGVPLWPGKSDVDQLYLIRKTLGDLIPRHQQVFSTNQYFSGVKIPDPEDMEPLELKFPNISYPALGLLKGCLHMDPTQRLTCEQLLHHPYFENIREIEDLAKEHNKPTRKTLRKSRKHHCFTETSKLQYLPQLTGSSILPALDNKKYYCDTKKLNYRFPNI
Sequence of ABL1 (P00519 whole entry): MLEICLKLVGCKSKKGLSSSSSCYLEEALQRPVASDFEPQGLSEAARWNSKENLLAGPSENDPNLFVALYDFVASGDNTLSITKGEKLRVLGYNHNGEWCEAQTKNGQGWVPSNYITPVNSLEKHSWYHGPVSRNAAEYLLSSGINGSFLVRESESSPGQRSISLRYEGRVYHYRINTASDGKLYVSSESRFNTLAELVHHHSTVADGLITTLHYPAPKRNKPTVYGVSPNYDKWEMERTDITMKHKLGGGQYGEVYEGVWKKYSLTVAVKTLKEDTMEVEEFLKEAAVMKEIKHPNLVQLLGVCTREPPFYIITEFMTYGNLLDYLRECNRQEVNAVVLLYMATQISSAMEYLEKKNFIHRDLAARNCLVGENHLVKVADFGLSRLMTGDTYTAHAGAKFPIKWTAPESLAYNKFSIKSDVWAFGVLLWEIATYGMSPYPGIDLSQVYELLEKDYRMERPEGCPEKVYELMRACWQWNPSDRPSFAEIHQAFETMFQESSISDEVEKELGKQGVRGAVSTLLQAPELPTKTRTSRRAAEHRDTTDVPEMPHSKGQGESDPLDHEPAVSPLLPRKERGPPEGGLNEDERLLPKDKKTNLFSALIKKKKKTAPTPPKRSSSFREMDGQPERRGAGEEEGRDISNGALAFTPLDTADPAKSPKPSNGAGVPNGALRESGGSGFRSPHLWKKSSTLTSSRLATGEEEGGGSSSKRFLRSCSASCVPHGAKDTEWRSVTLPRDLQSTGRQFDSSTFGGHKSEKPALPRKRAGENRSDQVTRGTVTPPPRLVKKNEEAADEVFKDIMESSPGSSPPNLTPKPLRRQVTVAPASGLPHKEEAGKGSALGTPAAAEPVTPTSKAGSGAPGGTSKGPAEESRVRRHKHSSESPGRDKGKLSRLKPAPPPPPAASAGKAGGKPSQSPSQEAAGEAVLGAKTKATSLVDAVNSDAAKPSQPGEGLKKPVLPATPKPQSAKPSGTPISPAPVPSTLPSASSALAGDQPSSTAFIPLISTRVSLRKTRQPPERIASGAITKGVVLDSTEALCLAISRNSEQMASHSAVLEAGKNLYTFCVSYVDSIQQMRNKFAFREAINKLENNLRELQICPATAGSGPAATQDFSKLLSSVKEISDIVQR
Sequence of CaMK2b (Q13554 whole entry): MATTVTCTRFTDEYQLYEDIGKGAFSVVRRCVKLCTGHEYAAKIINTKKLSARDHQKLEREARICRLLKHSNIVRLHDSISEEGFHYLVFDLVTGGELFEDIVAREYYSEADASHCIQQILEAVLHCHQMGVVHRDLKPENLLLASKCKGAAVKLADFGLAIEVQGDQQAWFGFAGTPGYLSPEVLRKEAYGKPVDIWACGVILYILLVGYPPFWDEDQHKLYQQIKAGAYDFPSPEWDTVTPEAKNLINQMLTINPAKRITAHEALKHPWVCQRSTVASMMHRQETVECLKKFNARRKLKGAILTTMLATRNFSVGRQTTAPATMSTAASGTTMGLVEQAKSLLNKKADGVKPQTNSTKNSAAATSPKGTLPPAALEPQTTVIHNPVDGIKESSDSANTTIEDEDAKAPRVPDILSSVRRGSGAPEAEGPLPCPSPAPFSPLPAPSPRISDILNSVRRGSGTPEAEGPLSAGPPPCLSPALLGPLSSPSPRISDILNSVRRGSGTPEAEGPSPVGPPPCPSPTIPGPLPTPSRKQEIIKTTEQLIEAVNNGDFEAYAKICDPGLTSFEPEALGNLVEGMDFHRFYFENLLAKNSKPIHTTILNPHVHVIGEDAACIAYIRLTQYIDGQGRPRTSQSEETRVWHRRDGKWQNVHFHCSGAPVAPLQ

ΔTm at 10 µM (FECH; read-out: dTm 8): -1.7 °C
ΔTm at 10 µM (CDKL1; read-out: dTm 8): 0.2 °C
ΔTm at 10 µM (GAK; read-out: dTm 8): 3.7 °C
ΔTm at 10 µM (CaMK2b; read-out: dTm 8): 0.2 °C
ΔTm at 10 µM (ABL1; read-out: dTm 8): 6.2 °C
ΔTm at 10 µM (PHKG2; read-out: dTm 8): 1.5 °C
ΔTm at 10 µM (MAP2K4; read-out: dTm 8): 2.7 °C
Structure (SMILES): CNc1ncc2cc(-c3cc(Cl)ccc3Cl)c(=O)n(CCCCN)c2n1 [compound 8, 8-(4-Aminobutyl)-6-(2,5-dichlorophenyl)-2-(methylamino)pyrido[2,3-d]pyrimidin-7(8H)-one]

ΔTm at 10 µM (FECH; read-out: dTm 11): -1.6 °C
ΔTm at 10 µM (CDKL1; read-out: dTm 11): 0.4 °C
ΔTm at 10 µM (GAK; read-out: dTm 11): 3.3 °C
ΔTm at 10 µM (CaMK2b; read-out: dTm 11): 0.3 °C
ΔTm at 10 µM (ABL1; read-out: dTm 11): 4.8 °C
ΔTm at 10 µM (PHKG2; read-out: dTm 11): 0.6 °C
ΔTm at 10 µM (MAP2K4; read-out: dTm 11): 3 °C
Structure (SMILES): CNc1ncc2cc(-c3cc(Br)ccc3Br)c(=O)n(CCCCN)c2n1 [compound 11, 8-(4-Aminobutyl)-6-(2,5-dibromophenyl)-2-(methylamino)pyrido[2,3-d]pyrimidin-7(8H)-one]

ΔTm at 10 µM (FECH; read-out: dTm 9): -1.7 °C
ΔTm at 10 µM (CDKL1; read-out: dTm 9): 0 °C
ΔTm at 10 µM (GAK; read-out: dTm 9): 1 °C
ΔTm at 10 µM (CaMK2b; read-out: dTm 9): 0.1 °C
ΔTm at 10 µM (ABL1; read-out: dTm 9): 2.5 °C
ΔTm at 10 µM (PHKG2; read-out: dTm 9): 0.5 °C
ΔTm at 10 µM (MAP2K4; read-out: dTm 9): 2.3 °C
Structure (SMILES): CNc1ncc2cc(-c3cc(C(F)(F)F)ccc3Cl)c(=O)n(CCCCN)c2n1 [compound 9, 8-(4-Aminobutyl)-6-(2-chloro-5-(trifluoromethyl)phenyl)-2-(methylamino)pyrido[2,3-d]pyrimidin-7(8H)-one]

ΔTm at 10 µM (FECH; read-out: dTm 10): -1.7 °C
ΔTm at 10 µM (CDKL1; read-out: dTm 10): 0.3 °C
ΔTm at 10 µM (GAK; read-out: dTm 10): 3.3 °C
ΔTm at 10 µM (CaMK2b; read-out: dTm 10): 0.3 °C
ΔTm at 10 µM (ABL1; read-out: dTm 10): 6.2 °C
ΔTm at 10 µM (PHKG2; read-out: dTm 10): 1.3 °C
ΔTm at 10 µM (MAP2K4; read-out: dTm 10): 3 °C
Structure (SMILES): CNc1ncc2cc(-c3cc(Cl)ccc3Br)c(=O)n(CCCCN)c2n1 [compound 10, 8-(4-Aminobutyl)-6-(2-bromo-5-chlorophenyl)-2-(methylamino)pyrido[2,3-d]pyrimidin-7(8H)-one]

ΔTm at 10 µM (FECH; read-out: dTm 12): -0.6 °C
ΔTm at 10 µM (CDKL1; read-out: dTm 12): 0.2 °C
ΔTm at 10 µM (GAK; read-out: dTm 12): 7.6 °C
ΔTm at 10 µM (CaMK2b; read-out: dTm 12): -0.4 °C
ΔTm at 10 µM (ABL1; read-out: dTm 12): 3.5 °C
ΔTm at 10 µM (PHKG2; read-out: dTm 12): 1.5 °C
ΔTm at 10 µM (MAP2K4; read-out: dTm 12): 5.4 °C
Structure (SMILES): CNc1ncc2cc(-c3cc(F)c(-c4cccc(C)n4)cc3F)c(=O)n(CCCCN)c2n1 [compound 12, 8-(4-Aminobutyl)-6-(2,5-difluoro-4-(6-methylpyridin-2-yl)phenyl)-2-(methylamino)pyrido[2,3-d]pyrimidin-7(8H)-one]
